The nature of this data set: Solubility of lysine HCl in water with temperature. The data set is classed as physicochemical. To be noted: room temperature (20-25° C.), monohydrochloride. The procedure:
The solubilities of lysine were essentially the same with and without the maleic acid added to the water. For example, samples of lysine HCl were added to water in sealed, glass bottles, shaken, and placed in the forced-air oven at various temperatures. These were manually shaken periodically over the next few hours, then left to dissolve overnight. […] At 70° C., the lysine completely dissolved to 60%; at 80° C. to 62%; at 90° C. to 64%; at 100° C. to 66% lysine by weight in water. […] Representative samples of these materials were dried and polymerized at 220° C., 5 to 7 hours, under nitrogen.

The results in this text go back to patent publication US9758395B2, “Lysine-based polymer coagulants for use in clarification of process waters” (priority 2011, dated 2017).

Regarding `Cl.NCCCC[C@H](N)C(=O)O` [lysine HCl, L-lysine monohydrochloride], the solubility in water result is “about 50 % by weight”. The same compound showed a solubility in water (listed as lysine) of 50 % by weight.
